Here are results for 1 compound from patent US4714774A, “Benzoic acid derivatives and their production” (Takeda Chemical Industries, Ltd., priority 1984, dated 1987).

Each structure is given as a SMILES string.

In data set [1] the test system is mice. The data set can be described thus: Acute oral toxicity in mice. The format is in vivo, mouse (Jcl:ICR strain). The following applies: male mice. Here is the method: Five 5-week-old male mice per group, of Jcl:ICR strain, weighing about 30 g each, were used. Compound (I')-1 was suspended in a 5% solution of gum arabic and administered orally at the level of 0.2 ml per 10 grams body weight.

Data set [2] relates to bronchoconstriction in guinea pigs due to an intravenous administration of synthetic leukotriene D4 (LTD4). The data set can be described thus: Inhibition of LTD4-induced bronchoconstriction in guinea pigs, oral dosing (Konzett-Rossler method). The following applies: Cavia porcellus, 1 h, guinea pig, p.o. one hour before LTD4 10 μg/kg i.v., inhibition of overflow volume 30 seconds after LTD4, read-out: ID50 (p.o.) (50% inhibitory dose). Type of data set: in vivo, guinea pig (Hartley strain). Here is the method:
Guinea pigs of Hartley strain, both male and female, with body weights about 400 g were assigned to groups of 6 to 10 individuals, and the bronchoconstriction due to LTD4 was measured according to the method of Konzett-Rossler [Konzett, H. and Rossler, R.: Naunyn-Schmiedebergs Archiv fur Experimentelle Pathologie und Pharmakologie 195, 71-74 (1940)]. Each guinea pig was fixed in supine position under urethane anesthesia (1.5 g/kg, intraperitoneal) and the trachea was incised and connected to an artificial respiration apparatus, Rodent Respirator Model 680 [Harvard Apparatus Company, U.S.A.] via a cannula. The branch tube of this tracheal cannula was connected to Bronchospasm Transducer Model 7020 [Ugobasil Biological Researach Apparatus, Italy]. Under the conditions of 4 to 7 ml of air per stroke, 70 strokes per minute and a lung loading pressure of 10 cmH2 O, the volume of overflowing air was recorded on Rectigraph-8S (San-ei Sokki Co. Ltd., Japan) via a transducer. After administration of gallamine.triethiodide (1 mg/kg, i.v.), a solution of LTD4 in physiological saline (10 μg/kg) was intravenously administered and the bronchoconstriction elicited thereby was recorded for 15 minutes. […]
*^1 ID50 (50% inhibitory dose): Each value was calculated from […]

With `CCCc1c(OCCCOc2ccc(C(=O)O)cc2Br)ccc(C(C)=O)c1OC(C)=O` [Compound (I')-1, 4-[3-(3-acetoxy-4-acetyl-2-propylphenoxy)propoxy]-3-bromobenzoic acid], the autopsy findings entry in data set [1] (oral 500 mg/kg, autopsy after 7 days) was “did not reveal any abnormalities”. The “symptoms attributable to the compound” value in data set [1] (single oral dose 500 mg/kg) is recorded as “no symptoms that could be attributable to compound (I')-1”. Moreover, the ED50 in data set [2] was 47 µmol/kg.
